Target: T1, estrogen receptor (Homo sapiens, UniProt P03372)
T1 construct: endogenous in cells; host or cells: ECC-1 cells
T1 sequence (P03372 1-595): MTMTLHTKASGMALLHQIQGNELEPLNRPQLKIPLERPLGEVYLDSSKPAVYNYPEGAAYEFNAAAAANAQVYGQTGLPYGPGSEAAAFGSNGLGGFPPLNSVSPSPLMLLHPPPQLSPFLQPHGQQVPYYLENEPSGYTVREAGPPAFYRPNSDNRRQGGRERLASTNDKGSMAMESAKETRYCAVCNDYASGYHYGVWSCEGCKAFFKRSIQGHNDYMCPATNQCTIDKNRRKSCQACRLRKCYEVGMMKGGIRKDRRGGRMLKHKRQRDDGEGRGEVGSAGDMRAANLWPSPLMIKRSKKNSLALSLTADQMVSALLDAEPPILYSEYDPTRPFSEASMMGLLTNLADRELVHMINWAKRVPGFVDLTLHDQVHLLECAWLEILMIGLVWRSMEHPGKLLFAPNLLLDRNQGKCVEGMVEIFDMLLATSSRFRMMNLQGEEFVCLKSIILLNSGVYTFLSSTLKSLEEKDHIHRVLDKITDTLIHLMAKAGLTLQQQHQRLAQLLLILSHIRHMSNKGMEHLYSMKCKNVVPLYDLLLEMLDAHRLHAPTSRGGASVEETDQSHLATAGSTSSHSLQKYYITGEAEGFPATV
Experiment: AP assay (alkaline phosphatase activity in ECC-1 cells), agonist mode (absence of E2) and antagonist mode (presence of 500 pM E2)
Format: cell-based
Settings: 3 days, AP activity normalized to 500 pM E2 alone, agonist and antagonist mode combined
Procedure, shortened: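 Read-out is absorbance at 405 nm from p-nitrophenyl phosphate cleavage (40 min, 42 °C), expressed relative to 500 pM E2 alone. Compounds were applied to ECC-1 cells in hormone-depleted medium for 3 days, either alone (agonist) or alongside 500 pM E2 (antagonist).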

SMILES	Activity (estrogen receptor modulation, e.g., agonism and antagonism)
C[C@@H]1Cc2c([nH]c3ccccc23)[C@@H](c2n[nH]c3cc(CN4CC5(CC(F)C5)C4)ccc23)N1CC(C)(C)F [Compound I-33, (1S,3R)-1-[6-[(6-fluoro-2-azaspiro[3.3]heptan-2-yl)methyl]-1H-indazol-3-yl]-2-(2-fluoro-2-methyl-propyl)-3-methyl-1,3,4,9-tetrahydropyrido[3,4-b]indole]	+++ (estrogen receptor antagonism (i) with pIC50 greater than 7.5 and at least a 10% reduction in the E2-normalized signal in the AP assay (antagonist mode); and (ii) no more than 10% increase in E2-normalized signal in the AP assay (agonist mode))
CC1CN(Cc2ccc3c([C@@H]4c5[nH]c6ccccc6c5C[C@@H](C)N4CC(F)(F)CO)n[nH]c3c2)C1 [Compound I-17, 2,2-difluoro-3-((1S,3R)-3-methyl-1-(6-((3-methylazetidin-1-yl)methyl)-1H-indazol-3-yl)-1,3,4,9-tetrahydro-2H-pyrido[3,4-b]indol-2-yl)propan-1-ol]	+++ (estrogen receptor antagonism (i) with pIC50 greater than 7.5 and at least a 10% reduction in the E2-normalized signal in the AP assay (antagonist mode); and (ii) no more than 10% increase in E2-normalized signal in the AP assay (agonist mode))
C[C@@H]1Cc2c([nH]c3ccccc23)[C@@H](c2ccc3[nH]c(CN4CC(N(C)C)C4)cc3c2)N1CC(C)(C)F [Compound I-99, 1-[[5-[(1R,3R)-2-(2-fluoro-2-methyl-propyl)-3-methyl-1,3,4,9-tetrahydropyrido[3,4-b]indol-1-yl]-1H-indol-2-yl]methyl]-N,N-dimethyl-azetidin-3-amine]	++ (estrogen receptor antagonism having (i) between 10% and 80% increase in the E2-normalized signal in the AP assay (agonist mode) and (ii) between 10% and 80% reduction in the E2-normalized signal in the AP assay (antagonist mode))
C[C@@H]1Cc2c([nH]c3ccccc23)[C@@H](c2c[nH]c3cc(CNCCCF)ccc23)N1CC(C)(C)F [Compound I-8, 3-fluoro-N-[[3-[(1R,3R)-2-(2-fluoro-2-methyl-propyl)-3-methyl-1,3,4,9-tetrahydropyrido[3,4-b]indol-1-yl]-1H-indol-6-yl]methyl]propan-1-amine]	+ (estrogen receptor agonism having (i) at least 80% increase in the E2-normalized signal in the AP assay (agonist mode) and (ii) no more than 80% reduction in the E2-normalized signal in the AP assay (antagonist mode))
C[C@@H]1Cc2c([nH]c3ccccc23)[C@@H](c2ccc3[nH]c(CN4CC(C(C)(C)O)C4)cc3c2)N1CC(C)(C)F [Compound I-48, 2-[1-[[5-[(1R,3R)-2-(2-fluoro-2-methyl-propyl)-3-methyl-1,3,4,9-tetrahydropyrido[3,4-b]indol-1-yl]-1H-indol-2-yl]methyl]azetidin-3-yl]propan-2-ol]	+ (estrogen receptor agonism having (i) at least 80% increase in the E2-normalized signal in the AP assay (agonist mode) and (ii) no more than 80% reduction in the E2-normalized signal in the AP assay (antagonist mode))
CCCN1CC(n2cc3cc([C@@H]4c5[nH]c6ccccc6c5C[C@@H](C)N4CC(F)(F)CO)ccc3n2)C1 (racemic) [Compound I-108, 2,2-difluoro-3-[rac-(1R,3R)-3-methyl-1-[2-(1-propylazetidin-3-yl)indazol-5-yl]-1,3,4,9-tetrahydropyrido[3,4-b]indol-2-yl]propan-1-ol]	+ (estrogen receptor agonism having (i) at least 80% increase in the E2-normalized signal in the AP assay (agonist mode) and (ii) no more than 80% reduction in the E2-normalized signal in the AP assay (antagonist mode))
C[C@@H]1Cc2c([nH]c3ccccc23)[C@@H](c2ccn3cc(CN4CC(CF)C4)nc3c2)N1CC(C)(C)F [Compound I-74, (1R,3R)-1-[2-[[3-(fluoromethyl)azetidin-1-yl]methyl]imidazo[1,2-a]pyridin-7-yl]-2-(2-fluoro-2-methyl-propyl)-3-methyl-1,3,4,9-tetrahydropyrido[3,4-b]indole]	+++ (estrogen receptor antagonism (i) with pIC50 greater than 7.5 and at least a 10% reduction in the E2-normalized signal in the AP assay (antagonist mode); and (ii) no more than 10% increase in E2-normalized signal in the AP assay (agonist mode))
C[C@@H]1Cc2c([nH]c3ccccc23)[C@@H](c2n[nH]c3cc(C(=O)O)ccc23)N1CC(C)(C)F [Compound I-4, 3-[(1S,3R)-2-(2-fluoro-2-methyl-propyl)-3-methyl-1,3,4,9-tetrahydropyrido[3,4-b]indol-1-yl]-1H-indazole-6-carboxylic acid]	+ (estrogen receptor agonism having (i) at least 80% increase in the E2-normalized signal in the AP assay (agonist mode) and (ii) no more than 80% reduction in the E2-normalized signal in the AP assay (antagonist mode))
CC1CN(Cc2cc3sc([C@@H]4c5[nH]c6ccccc6c5C[C@@H](C)N4CC(C)(C)F)cc3[nH]2)C1 [Compound I-66, 2-[(1S,3R)-2-(2-fluoro-2-methyl-propyl)-3-methyl-1,3,4,9-tetrahydropyrido[3,4-b]indol-1-yl]-5-[(3-methylazetidin-1-yl)methyl]-4H-thieno[3,2-b]pyrrole]	+ (estrogen receptor agonism having (i) at least 80% increase in the E2-normalized signal in the AP assay (agonist mode) and (ii) no more than 80% reduction in the E2-normalized signal in the AP assay (antagonist mode))
C[C@@H]1Cc2c([nH]c3ccccc23)[C@@H](c2ccc3[nH]c(CN4CC5(C4)CC(O)(C(F)F)C5)cc3c2)N1CC(C)(C)F [Compound I-49, 6-(difluoromethyl)-2-[[5-[(1R,3R)-2-(2-fluoro-2-methyl-propyl)-3-methyl-1,3,4,9-tetrahydropyrido[3,4-b]indol-1-yl]-1H-indol-2-yl]methyl]-2-azaspiro[3.3]heptan-6-ol]	+ (estrogen receptor agonism having (i) at least 80% increase in the E2-normalized signal in the AP assay (agonist mode) and (ii) no more than 80% reduction in the E2-normalized signal in the AP assay (antagonist mode))
CCN1CC(n2cc3cc([C@@H]4c5[nH]c6ccccc6c5C[C@@H](C)N4CC(F)(F)CO)ccc3n2)C1 (racemic) [Compound I-107, 2,2-difluoro-3-[rac-(1R,3R)-1-[2-(1-ethylazetidin-3-yl)indazol-5-yl]-3-methyl-1,3,4,9-tetrahydropyrido[3,4-b]indol-2-yl]propan-1-ol]	+ (estrogen receptor agonism having (i) at least 80% increase in the E2-normalized signal in the AP assay (agonist mode) and (ii) no more than 80% reduction in the E2-normalized signal in the AP assay (antagonist mode))
C[C@@H]1Cc2c([nH]c3ccccc23)[C@@H](c2c[nH]c3cc(CN4CC(CF)C4)ccc23)N1CC(C)(C)F [Compound I-5, (1R,3R)-1-[6-[[3-(fluoromethyl)azetidin-1-yl]methyl]-1H-indol-3-yl]-2-(2-fluoro-2-methyl-propyl)-3-methyl-1,3,4,9-tetrahydropyrido[3,4-b]indole]	++ (estrogen receptor antagonism having (i) between 10% and 80% increase in the E2-normalized signal in the AP assay (agonist mode) and (ii) between 10% and 80% reduction in the E2-normalized signal in the AP assay (antagonist mode))
C[C@@H]1Cc2c([nH]c3ccccc23)[C@@H](c2n[nH]c3cc(CN4CCC45CC(F)(F)C5)ccc23)N1CC(C)(C)F [Compound I-34, (1S,3R)-1-[6-[(6,6-difluoro-1-azaspiro[3.3]heptan-1-yl)methyl]-1H-indazol-3-yl]-2-(2-fluoro-2-methyl-propyl)-3-methyl-1,3,4,9-tetrahydropyrido[3,4-b]indole]	+ (estrogen receptor agonism having (i) at least 80% increase in the E2-normalized signal in the AP assay (agonist mode) and (ii) no more than 80% reduction in the E2-normalized signal in the AP assay (antagonist mode))
C[C@@H]1Cc2c([nH]c3ccccc23)[C@@H](c2ccc3oc(CN4CC(CF)C4)nc3c2)N1CC(F)(F)CO [Compound I-80, 2,2-difluoro-3-[(1R,3R)-1-[2-[[3-(fluoromethyl)azetidin-1-yl]methyl]-1,3-benzoxazol-5-yl]-3-methyl-1,3,4,9-tetrahydropyrido[3,4-b]indol-2-yl]propan-1-ol]	+++ (estrogen receptor antagonism (i) with pIC50 greater than 7.5 and at least a 10% reduction in the E2-normalized signal in the AP assay (antagonist mode); and (ii) no more than 10% increase in E2-normalized signal in the AP assay (agonist mode))
C[C@@H]1Cc2c([nH]c3ccccc23)[C@@H](c2cnc3[nH]c(CN4CC(CF)C4)cc3c2)N1CC(C)(C)F [Compound I-69, (1R,3R)-1-[2-[[3-(fluoromethyl)azetidin-1-yl]methyl]-1H-pyrrolo[2,3-b]pyridin-5-yl]-2-(2-fluoro-2-methyl-propyl)-3-methyl-1,3,4,9-tetrahydropyrido[3,4-b]indole]	++ (estrogen receptor antagonism having (i) between 10% and 80% increase in the E2-normalized signal in the AP assay (agonist mode) and (ii) between 10% and 80% reduction in the E2-normalized signal in the AP assay (antagonist mode))
